Source: PubChem BioAssay (NCI)
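96-well plates; 48 h exposure; 5 concentrations. Endpoints by linear interpolation between flanking doses. Not reached: highest tested concentration assigned. Definition used: TGI = concentration required for complete inhibition of growth.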

How the values were obtained:
Assay in all cases: NCI anticancer screen, dose series, 48 h
BT-549 breast = test system: BT-549 breast
IGROV1 ovarian = test system: IGROV1 ovarian
NCI/ADR-RES ovarian = test system: NCI/ADR-RES ovarian
EKVX NSCLC = test system: EKVX NSCLC
MOLT-4 leukemia = test system: MOLT-4 leukemia
MCF7 breast = test system: MCF7 breast
A549 NSCLC = test system: A549 NSCLC
KM12 colon = test system: KM12 colon
M14 melanoma = test system: M14 melanoma
K-562 leukemia = test system: K-562 leukemia
MDA-MB-435 = test system: MDA-MB-435
OVCAR-8 ovarian = test system: OVCAR-8 ovarian
COLO 205 colon = test system: COLO 205 colon
SNB-19 CNS = test system: SNB-19 CNS
SF-268 CNS = test system: SF-268 CNS
UACC-257 melanoma = test system: UACC-257 melanoma
A498 renal = test system: A498 renal

Row | SMILES | TGI (BT-549 breast) [µM] | TGI (IGROV1 ovarian) [µM] | TGI (NCI/ADR-RES ovarian) [µM] | TGI (EKVX NSCLC) [µM] | TGI (MOLT-4 leukemia) [µM] | TGI (MCF7 breast) [µM] | TGI (A549 NSCLC) [µM] | TGI (KM12 colon) [µM] | TGI (M14 melanoma) [µM] | TGI (K-562 leukemia) [µM] | TGI (MDA-MB-435) [µM] | TGI (OVCAR-8 ovarian) [µM] | TGI (COLO 205 colon) [µM] | TGI (SNB-19 CNS) [µM] | TGI (SF-268 CNS) [µM] | TGI (UACC-257 melanoma) [µM] | TGI (A498 renal) [µM]
1 | COc1ccccc1C(O)[C@@H]1C[C@@H]2[C@H]3CC[C@@](C)([C@@H]2O1)C3(C)C (stereo not given in full) | 42.2 | 31.2 | 42 | > 100 | 39 | 41.7 | 43.4 | 41.6 | 40.1 | 52.3 | 34.4 | 38.9 | 35.2 | 39 | 58 | 39 | 29.5
2 | Nc1nc(NCCCO)cc(=O)[nH]1 | > 100 | > 100 | > 100 | > 100 | > 100 | > 100 | > 100 | > 100 | > 100 | > 100 | > 100 | > 100 | > 100 | > 100 | > 100 | > 100 | > 100
3 | CN(CCCNC(=O)c1cn(C)c2c1Cc1ccccc1-2)CCCNC(=O)c1cn(C)c2c1Cc1ccccc1-2 | 39.2 | 21.8 | 28 | 22.6 | 16.4 | 25.4 | 32.3 | 26.9 | 11.6 | 17 | 5.16 | 29.8 | 4.05 | 24.1 | 21.3 | 18.9 | 26.8
4 | CCC1(c2ccc(N3C(=O)c4cc(OC)c(OC)cc4C3=O)cc2)CCC(=O)NC1=O (stereo not given) | > 10 | > 10 | > 10 | > 10 | > 10 | > 10 | > 10 | > 10 | > 10 | > 10 | > 10 | > 10 | > 10 | > 10 | > 10 | > 10 | > 10
5 | COC(=O)CCNC(=O)OCc1ccccc1 | > 100 | > 100 | > 100 | > 100 | > 100 | > 100 | > 100 | > 100 | > 100 | > 100 | > 100 | > 100 | > 100 | > 100 | > 100 | > 100 | > 100
6 | COC(=O)c1cc(NC(=O)Cc2c[nH]c3ccccc23)cn1C | > 100 | > 100 | > 100 | > 100 | > 100 | > 100 | > 100 | > 100 | > 100 | > 100 | > 100 | > 100 | > 100 | > 100 | > 100 | > 100 | > 100
7 | Cc1cc2nc3ccccc3n2c2nc(N)ccc12 | > 100 | > 100 | > 100 | > 100 | > 100 | > 100 | > 100 | > 100 | > 100 | > 100 | > 100 | 80.4 | > 100 | > 100 | > 100 | > 100 | > 100
8 | O=C(/C=C/c1ccccc1)Nc1ccccc1SCCCCl | > 36 | > 51.5 | 35.1 | > 100 | > 100 | > 100 | > 100 | > 64.6 | > 100 | > 100 | 37 | > 69.8 | 48.5 | > 95.4 | > 100 | > 100 | > 29.5
9 | CC(=O)NNc1nc(C)c(C(/C=C/c2ccccc2O)=N/N=C(N)N)s1 | > 100 | > 100 | > 100 | > 100 | > 100 | > 100 | > 100 | > 100 | > 100 | > 100 | > 100 | > 100 | > 100 | > 100 | > 100 | > 100 | > 100
10 | CCCCc1ccc(Nc2nc(OC)c3ncn(C4CC(O)C(CO)O4)c3n2)cc1 (stereo not given) | 38.1 | 27.2 | 65.6 | 6.08 | 36.7 | 29.4 | 39.3 | 32 | 85.6 | > 100 | 36.6 | 35.2 | 28.4 | 34.3 | 34.5 | 34.6 | 35.3
11 | COc1ccccc1/C=C/C1=NN(c2cccc(S(=O)(=O)O)c2)C2(C1)C(Cl)C(=O)N2c1nc2ccccc2s1 (stereo not given) | > 100 | > 100 | > 100 | > 100 | > 100 | > 100 | > 100 | > 100 | > 100 | > 100 | > 100 | > 100 | > 100 | > 100 | > 100 | > 100 | > 100
12 | Cc1ccc2nc(C(C)C)c(=O)[nH]c2c1 | > 100 | > 100 | > 100 | > 100 | > 100 | > 100 | > 100 | > 100 | > 100 | > 100 | > 100 | > 100 | > 100 | > 100 | > 100 | > 100 | > 100
13 | C=C(C(=O)OC)[C@@H]1C[C@@H](OC(C)=O)C2=C[C@H](C[C@@]3(C)O[C@@H]3C3=CC(C)=C(O3)[C@H]1OC(C)=O)OC2=O | 31.3 | 57.1 | > 100 | 38.9 | 6.72 | 35.3 | > 100 | 43.7 | 43.2 | 24.9 | 37.9 | > 100 | 25.8 | > 100 | > 100 | 44.3 | 33.8
14 | CCOC(=O)/C=C(/C(=O)OCC)n1ccc(=O)n(Cc2cnnn2COCCOC(C)=O)c1=O | 38.2 | 39.3 | 61.9 | 33.8 | 23.4 | 27.7 | > 100 | > 56.4 | 38.8 | > 100 | 32.5 | 30.6 | 9.73 | > 31.6 | 44.4 | 31.3 | 65
15 | CCCCCc1c(CCCC)c(=O)[nH]c2nc(NC(=O)CCCC)ccc12 | > 100 | > 100 | > 100 | > 100 | > 100 | > 100 | > 100 | > 100 | > 100 | > 100 | > 100 | > 100 | > 100 | > 100 | > 100 | > 100 | > 100
16 | O=C1O[C@H]2[C@H](OC(=O)c3cc(O)c(O)c(O)c3)[C@@H](OC(=O)c3cc(O)c(O)c4c3[C@@H]3C1=CC(=O)C(O)(O)C3(O)O4)[C@H](OC(=O)c1cc(O)c(O)c(O)c1)O[C@@H]2COC(=O)c1cc(O)c(O)c(O)c1 (stereo not given in full) | > 100 | > 100 | > 100 | > 100 | > 100 | > 100 | > 100 | 41.1 | > 100 | > 100 | > 100 | > 100 | > 100 | > 100 | > 100 | > 100 | > 100
17 | COc1ccc(N=NC(=O)NC(CC(C)C)C(=O)NCC(=O)O)cc1 (stereo not given) | > 100 | > 100 | > 100 | > 100 | > 100 | > 100 | > 61.9 | > 100 | > 100 | > 29.1 | > 100 | > 100 | 24.5 | > 100 | > 100 | > 100 | > 100
18 | O=[S@]1c2ccc3ccccc3c2N[C@@H]2[C@H]1[C@H]1C=C[C@@H]2C1 | > 100 | > 100 | 99.7 | > 100 | > 100 | > 100 | > 100 | > 100 | > 100 | > 100 | 99.6 | > 100 | > 100 | > 100 | > 100 | > 100 | > 100
19 | Cc1ccc(C)n2c1nc1ccccc12 | > 100 | > 100 | > 100 | > 100 | > 100 | > 100 | > 100 | > 100 | > 100 | > 100 | > 100 | > 100 | > 100 | > 100 | > 100 | > 100 | 33.7
20 | CC(C)=CCC[C@@H](C)C1=C(O)C(Nc2ccccc2Cl)=C(C)C(=O)C1=O | > 75 | 46.5 | 11.9 | > 75 | > 57.5 | > 75 | > 59.7 | 30 | > 59.9 | > 75 | > 75 | > 41 | 21.7 | > 75 | > 75 | > 75 | > 56.9
